Measured values as given in patent publication US9186346B2, “Methods for reducing the risk of an adverse teriflunomide and rosuvastatin interaction in multiple sclerosis patients” (SANOFI, priority 2013, dated 2015).

Legend:
[1] = molecular target: T1, OAT3 (Homo sapiens, UniProt Q8TCC7); assay: In vitro inhibition of OAT3
T1 sequence (Q8TCC7 1-542): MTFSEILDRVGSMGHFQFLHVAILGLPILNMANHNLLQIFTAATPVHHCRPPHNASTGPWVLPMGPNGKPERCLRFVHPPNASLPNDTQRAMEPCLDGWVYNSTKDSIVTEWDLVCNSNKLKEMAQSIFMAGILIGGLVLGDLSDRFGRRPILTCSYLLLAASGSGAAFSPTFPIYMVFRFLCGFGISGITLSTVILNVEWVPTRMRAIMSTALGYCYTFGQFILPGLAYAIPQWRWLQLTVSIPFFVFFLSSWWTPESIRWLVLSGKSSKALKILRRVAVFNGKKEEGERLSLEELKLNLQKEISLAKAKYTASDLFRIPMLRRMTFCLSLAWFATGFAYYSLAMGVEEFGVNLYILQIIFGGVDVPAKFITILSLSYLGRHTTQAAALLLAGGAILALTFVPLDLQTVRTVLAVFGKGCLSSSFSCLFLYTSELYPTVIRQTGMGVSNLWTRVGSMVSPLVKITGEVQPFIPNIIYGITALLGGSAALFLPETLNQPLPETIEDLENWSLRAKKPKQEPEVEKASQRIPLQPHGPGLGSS
Text: (§1) The use of teriflunomide for treating multiple sclerosis is described in U.S. Pat. No. 6,794,410.

[2] = molecular target: T2, human OATP1B1 (Homo sapiens, UniProt Q9Y6L6); assay: In vitro inhibition of human OATP1B1
T2 sequence (Q9Y6L6 1-691): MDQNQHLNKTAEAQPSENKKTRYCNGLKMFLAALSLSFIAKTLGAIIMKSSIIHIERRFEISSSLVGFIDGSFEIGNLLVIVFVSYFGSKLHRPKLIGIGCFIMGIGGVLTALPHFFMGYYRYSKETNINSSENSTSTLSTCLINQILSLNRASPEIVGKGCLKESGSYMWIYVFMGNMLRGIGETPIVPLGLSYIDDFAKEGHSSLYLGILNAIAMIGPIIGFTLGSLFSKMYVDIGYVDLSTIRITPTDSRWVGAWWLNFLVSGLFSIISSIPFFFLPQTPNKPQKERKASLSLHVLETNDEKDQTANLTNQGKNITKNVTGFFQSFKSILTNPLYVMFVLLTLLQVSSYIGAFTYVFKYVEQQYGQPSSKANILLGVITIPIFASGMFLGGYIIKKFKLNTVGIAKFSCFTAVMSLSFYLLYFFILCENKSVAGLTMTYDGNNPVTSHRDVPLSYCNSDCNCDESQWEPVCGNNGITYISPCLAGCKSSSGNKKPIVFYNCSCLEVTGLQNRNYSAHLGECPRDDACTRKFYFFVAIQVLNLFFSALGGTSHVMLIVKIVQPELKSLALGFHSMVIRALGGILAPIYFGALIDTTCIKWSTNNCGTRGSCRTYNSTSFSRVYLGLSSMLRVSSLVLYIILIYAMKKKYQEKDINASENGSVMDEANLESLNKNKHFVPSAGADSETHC
Text: as §1

[3] = molecular target: T3, BCRP (Homo sapiens, UniProt Q9UNQ0); assay: In vitro inhibition of BCRP
T3 sequence (Q9UNQ0 1-655): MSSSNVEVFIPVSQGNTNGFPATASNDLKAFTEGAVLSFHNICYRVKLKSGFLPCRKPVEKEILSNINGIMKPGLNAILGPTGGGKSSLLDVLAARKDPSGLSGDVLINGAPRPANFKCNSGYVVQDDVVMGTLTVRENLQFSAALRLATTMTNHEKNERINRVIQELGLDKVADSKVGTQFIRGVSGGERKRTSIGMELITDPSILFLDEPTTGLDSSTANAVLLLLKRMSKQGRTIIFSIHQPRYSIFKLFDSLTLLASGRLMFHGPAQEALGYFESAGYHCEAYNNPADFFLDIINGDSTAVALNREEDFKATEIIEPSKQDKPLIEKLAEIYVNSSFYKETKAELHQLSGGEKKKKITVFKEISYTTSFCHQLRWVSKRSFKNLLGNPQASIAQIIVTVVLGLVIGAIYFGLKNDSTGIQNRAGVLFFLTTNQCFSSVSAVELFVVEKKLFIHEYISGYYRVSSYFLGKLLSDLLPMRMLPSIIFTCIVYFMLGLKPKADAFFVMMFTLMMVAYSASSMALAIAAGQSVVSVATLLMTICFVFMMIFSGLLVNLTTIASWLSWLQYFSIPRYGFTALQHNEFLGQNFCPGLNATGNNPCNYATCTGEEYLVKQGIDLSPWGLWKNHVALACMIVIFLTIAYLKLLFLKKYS
Text: as §1

[4] = molecular target: T4, OATP1B3 (Homo sapiens, UniProt Q9NPD5); assay: In vitro inhibition of OATP1B3
T4 sequence (Q9NPD5 1-702): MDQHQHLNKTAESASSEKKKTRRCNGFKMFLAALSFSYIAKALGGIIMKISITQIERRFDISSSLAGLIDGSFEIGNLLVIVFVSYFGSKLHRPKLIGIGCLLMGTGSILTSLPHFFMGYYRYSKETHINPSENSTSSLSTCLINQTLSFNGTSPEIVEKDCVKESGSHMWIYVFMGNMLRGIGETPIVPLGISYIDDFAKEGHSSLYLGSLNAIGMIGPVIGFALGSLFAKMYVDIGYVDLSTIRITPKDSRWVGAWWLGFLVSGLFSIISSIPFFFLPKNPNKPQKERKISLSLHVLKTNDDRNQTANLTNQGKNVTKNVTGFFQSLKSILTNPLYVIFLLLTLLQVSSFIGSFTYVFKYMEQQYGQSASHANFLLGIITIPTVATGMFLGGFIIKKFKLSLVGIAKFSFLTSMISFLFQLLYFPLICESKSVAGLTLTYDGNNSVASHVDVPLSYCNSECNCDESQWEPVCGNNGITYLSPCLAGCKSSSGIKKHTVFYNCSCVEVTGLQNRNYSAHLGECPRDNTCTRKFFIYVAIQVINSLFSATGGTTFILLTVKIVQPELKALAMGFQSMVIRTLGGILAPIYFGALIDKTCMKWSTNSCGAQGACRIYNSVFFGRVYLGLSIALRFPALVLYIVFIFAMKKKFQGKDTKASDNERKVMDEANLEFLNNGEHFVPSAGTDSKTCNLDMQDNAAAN
Text: as §1

[5] = Crossover interaction study: effect of repeated doses of teriflunomide on the pharmacokinetics of a single dose of rosuvastatin in healthy male subjects; format: in vivo, human
Method: A single-center, open-label, 1-sequence, 2-period, 2-treatment crossover study with a 5-day washout between periods was conducted in 15 healthy male subjects aged 18 to 45 to evaluate the effect of repeated doses of teriflunomide on the pharmacokinetics (PK) of a single dose of rosuvastatin 10 mg. All subjects received the following treatments during each period: • 1. Period 1: A single 10 mg dose of rosuvastatin was administered in fasted state followed by a 5-day washout (from Days 1 to 6). Day 6 corresponded to Day 1 of Period 2. • 2. Period 2: A loading dose of 70 mg teriflunomide was administered once a day for 4 days (Days 1 to 4), followed by 14 mg once a day for 8 days (Days 5 to 12) in fed conditions except for Day 12. A single dose of 10 mg rosuvastatin was co-administered with teriflunomide on Day 12 in fasted conditions.
The following PK parameters were calculated using noncompartmental methods from plasma rosuvastatin concentration obtained after single dose administration:
Rosuvastatin: Area under the plasma concentration versus time curve (AUC) from time zero to the real time corresponding to the last concentration above the lower limit of quantitation, tlast, (AUClast) and area under the plasma concentration versus time curve extrapolated to infinity (AUC).
Rosuvastatin: Maximum plasma concentration (Cmax) observed, time to reach maximum concentration (Tmax), tlast, and terminal half-life (t1/2z).
Rosuvastatin: Blood samples were collected at predose, 0.5, 1, 2, 3, 4, 5, 6, 8, 10, 12, 24 and 36 hours postdose on Day 1 of Period 1 and Day 12 of Period 2.
Rosuvastatin plasma concentrations were determined by a validated liquid chromatography couples with tandem mass spectrometry (LC-MS/MS) method, with a LLOQ (lower limit of quantification) of 50.1 pg/mL. Teriflunomide plasma concentrations were determined with a validated LC-MS/MS method with an LLOQ of 0.01 μg/mL.
Rosuvastatin PK parameters and teriflunomide Ctrough (trough plasma concentration) were summarized with descriptive statistics for each treatment.

[6] = following teriflunomide 70 mg QD for 4 days and 14 mg QD for 8 days

SMILES | IC50 [1] [µM] | IC50 [2] [µM] | IC50 [3] [µM] | IC50 [4] [µM] | Increase in mean rosuvastatin AUC [5, 6] [fold] | Increase in mean rosuvastatin Cmax [5, 6] [fold] | AUC(0-t) ([5]; male, human, plasma, rosuvastatin 10 mg alone, mean ± SD, N=15, read-out: Rosuvastatin AUClast) [ng·h/mL] | Tmax ([5]; male, human, plasma, rosuvastatin 10 mg alone, median (min-max), N=15) [h] | Cmax ([5]; male, human, rosuvastatin 10 mg single dose alone, fasted, Day 1 Period 1, plasma, mean ± SD, N=15) [ng/mL] | Rosuvastatin t1/2z ([5]; rosuvastatin 10 mg alone, mean ± SD, N=15) [h]
C/C(O)=C(\C#N)C(=O)Nc1ccc(C(F)(F)F)cc1 [Teriflunomide, (Z)-2-cyano-3-hydroxy-but-2-enoic acid-(4′-trifluoromethylphenyI)-amide] | 1.3 | 7.1 | 0.15 | 7.04 |  |  |  |  |  | 
CC(C)c1nc(N(C)S(C)(=O)=O)nc(-c2ccc(F)cc2)c1/C=C/[C@@H](O)C[C@@H](O)CC(=O)O [Rosuvastatin] |  |  |  |  | 2.51 | 2.65 | 31.5 ± 16.4 | 3 | 3.65 ± 1.78 | 11.1 ± 2.99
